Experimental data: PubChem BioAssay (NCI)
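In this assay, cells in 96-well plates receive the compound at five concentrations for 48 hours. Endpoints are linearly interpolated between the surrounding concentrations. Definition used: TGI = concentration required for complete inhibition of growth.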

Assays:
Experiment in all cases: growth of human tumour cells (NCI), 48 h
IGROV1 ovarian = test system: IGROV1 ovarian
HCT-15 colon = test system: HCT-15 colon
ACHN renal = test system: ACHN renal
RXF-631 renal = test system: RXF-631 renal
SNB-19 CNS = test system: SNB-19 CNS
SK-MEL-2 melanoma = test system: SK-MEL-2 melanoma
DLD-1 colon = test system: DLD-1 colon
UACC-62 melanoma = test system: UACC-62 melanoma
COLO 205 colon = test system: COLO 205 colon
OVCAR-5 ovarian = test system: OVCAR-5 ovarian
HOP-62 NSCLC = test system: HOP-62 NSCLC
UACC-257 melanoma = test system: UACC-257 melanoma
SW-620 colon = test system: SW-620 colon
LOX IMVI melanoma = test system: LOX IMVI melanoma
SR leukemia = test system: SR leukemia
SK-MEL-28 melanoma = test system: SK-MEL-28 melanoma
NCI-H522 lung = test system: NCI-H522 lung
TK-10 renal = test system: TK-10 renal
RXF 393 renal = test system: RXF 393 renal
CAKI-1 renal = test system: CAKI-1 renal
HOP-18 NSCLC = test system: HOP-18 NSCLC
A549 NSCLC = test system: A549 NSCLC
RPMI-8226 leukemia = test system: RPMI-8226 leukemia
SK-MEL-5 melanoma = test system: SK-MEL-5 melanoma
HOP-92 NSCLC = test system: HOP-92 NSCLC
SF-295 CNS = test system: SF-295 CNS
M19-MEL melanoma = test system: M19-MEL melanoma
MALME-3M melanoma = test system: MALME-3M melanoma
UO-31 renal = test system: UO-31 renal
OVCAR-3 ovarian = test system: OVCAR-3 ovarian
K-562 leukemia = test system: K-562 leukemia
SF-539 CNS = test system: SF-539 CNS
NCI-H226 lung = test system: NCI-H226 lung
OVCAR-4 ovarian = test system: OVCAR-4 ovarian
SNB-78 CNS = test system: SNB-78 CNS
SN12C renal = test system: SN12C renal
DMS 273 small cell lung = test system: DMS 273 small cell lung
MOLT-4 leukemia = test system: MOLT-4 leukemia
HT29 colon = test system: HT29 colon
HCT-116 colon = test system: HCT-116 colon
M14 melanoma = test system: M14 melanoma
KM12 colon = test system: KM12 colon
SF-268 CNS = test system: SF-268 CNS
EKVX NSCLC = test system: EKVX NSCLC
HL-60(TB) leukemia = test system: HL-60(TB) leukemia
XF 498 CNS = test system: XF 498 CNS
A498 renal = test system: A498 renal
SNB-75 CNS = test system: SNB-75 CNS
LXFL 529 NSCLC = test system: LXFL 529 NSCLC
CCRF-CEM leukemia = test system: CCRF-CEM leukemia
OVCAR-8 ovarian = test system: OVCAR-8 ovarian
SK-OV-3 ovarian = test system: SK-OV-3 ovarian
NCI-H460 lung = test system: NCI-H460 lung
NCI-H23 lung = test system: NCI-H23 lung
786-0 renal = test system: 786-0 renal
KM20L2 colon = test system: KM20L2 colon
U251 CNS = test system: U251 CNS
DMS 114 small cell lung = test system: DMS 114 small cell lung

Measured: TGI

OCn1nc2c(C3OCCO3)cc3ccccc3n2c1=S
> 100 µM: all assays above
